Results published in ChEMBL document CHEMBL5046244, “Targeted Covalent Inhibition of Small CTD Phosphatase 1 to Promote the Degradation of the REST Transcription Factor in Human Cells” (J Med Chem, 2022).
Active and inactive are the calls of the source. The rule behind the calls is not given here.

Assays:
[1] = Downregulation of REST protein expression in HEK293 cells at 3 uM incubated for 3 days with media replenishment for every 24 hrs by immunoblot analysis relative to control; format: functional, Homo sapiens; settings: time 3 day
HEK293 [2] = experiment: Recovery of REST protein expression in HEK293 cells at 10 uM incubated for 2 days with media replenishment for every 24 hrs followed by compound washout and measured after 12 hrs by immunoblot analysis relative to control; format: functional, Homo sapiens; settings: time 2 day
[3] = molecular target: Dual specificity protein phosphatase 3 (Homo sapiens) (UniProt P51452); experiment: Inhibition of VHR (unknown origin) at 25 to 30 uM; settings: dose 25-30 µM
Chain of Dual specificity protein phosphatase 3 (Homo sapiens) (P51452 whole entry, looked up): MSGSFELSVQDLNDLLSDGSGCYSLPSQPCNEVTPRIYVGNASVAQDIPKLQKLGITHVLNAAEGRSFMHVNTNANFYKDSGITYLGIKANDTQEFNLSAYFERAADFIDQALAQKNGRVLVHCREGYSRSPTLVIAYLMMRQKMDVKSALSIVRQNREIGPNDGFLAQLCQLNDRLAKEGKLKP

HEK293 [4] = experiment: Downregulation of REST protein expression in HEK293 cells at 10 uM incubated for 48 to 72 hrs by immunoblot analysis; format: functional, cell-based; settings: Homo sapiens, time lower […], time upper 72.0 hrs
[5] = molecular target: T1, Tyrosine-protein phosphatase non-receptor type 1 (Homo sapiens) (UniProt P18031); experiment: Inhibition of human PTP1B (1 to 321 residues) expressed in Escherichia coli BL21 (DE3) using pNPP as substrate at up to 200 uM preincubated for 4 hrs followed by substrate addition by absorption based analysis; settings: dose microM <=200, time 4.0 hrs
T1 sequence (whole entry): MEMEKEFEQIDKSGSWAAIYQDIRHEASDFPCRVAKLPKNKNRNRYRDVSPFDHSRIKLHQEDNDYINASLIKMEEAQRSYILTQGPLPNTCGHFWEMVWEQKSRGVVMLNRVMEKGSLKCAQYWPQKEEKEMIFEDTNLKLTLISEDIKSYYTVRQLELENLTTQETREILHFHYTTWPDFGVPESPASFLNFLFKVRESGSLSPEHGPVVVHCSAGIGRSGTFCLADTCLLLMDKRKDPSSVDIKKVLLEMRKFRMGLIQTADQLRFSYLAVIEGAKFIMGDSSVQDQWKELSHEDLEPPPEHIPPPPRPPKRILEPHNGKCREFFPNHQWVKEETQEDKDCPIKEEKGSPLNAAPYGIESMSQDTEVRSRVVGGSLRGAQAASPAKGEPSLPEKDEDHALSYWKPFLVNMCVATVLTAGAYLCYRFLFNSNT

Homo sapiens [6] = species on record: Homo sapiens; experiment: Covalent inhibition of human SCP1 C148A mutant using pNPP as substrate preincubated for 0.5 to 8 hrs followed by substrate addition by absorbance based analysis; settings: time 0.5-8 hrs
[7] = molecular target: T2, Tyrosine-protein phosphatase non-receptor type 11 (Homo sapiens) (UniProt Q06124); experiment: Inhibition of SHP2 (unknown origin) at 25 to 30 uM; settings: dose 25-30 µM
T2 sequence (whole entry): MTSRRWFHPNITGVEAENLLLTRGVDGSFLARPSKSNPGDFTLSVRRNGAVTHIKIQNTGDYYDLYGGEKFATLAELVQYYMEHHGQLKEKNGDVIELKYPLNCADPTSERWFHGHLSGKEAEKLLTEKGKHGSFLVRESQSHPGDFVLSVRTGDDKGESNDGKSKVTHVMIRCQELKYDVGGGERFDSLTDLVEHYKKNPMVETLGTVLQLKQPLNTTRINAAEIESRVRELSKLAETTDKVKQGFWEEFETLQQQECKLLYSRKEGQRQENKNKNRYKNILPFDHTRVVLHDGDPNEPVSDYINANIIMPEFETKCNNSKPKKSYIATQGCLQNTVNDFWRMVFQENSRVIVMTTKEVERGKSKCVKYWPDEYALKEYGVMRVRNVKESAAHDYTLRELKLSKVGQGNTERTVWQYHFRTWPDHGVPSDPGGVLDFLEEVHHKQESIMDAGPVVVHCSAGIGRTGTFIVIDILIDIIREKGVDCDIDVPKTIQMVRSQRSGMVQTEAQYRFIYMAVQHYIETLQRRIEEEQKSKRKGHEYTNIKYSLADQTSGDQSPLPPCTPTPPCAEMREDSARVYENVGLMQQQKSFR

[8] = Downregulation of REST protein expression in HEK293 cells at 10 uM incubated for 6 hrs by immunoblot analysis relative to control; format: functional, Homo sapiens
[9] = molecular target: T3, Tyrosine-protein phosphatase non-receptor type 22 (Homo sapiens) (UniProt Q9Y2R2); experiment: Inhibition of LYP (unknown origin) at 25 to 30 uM; settings: dose 25-30 µM
T3 sequence (whole entry): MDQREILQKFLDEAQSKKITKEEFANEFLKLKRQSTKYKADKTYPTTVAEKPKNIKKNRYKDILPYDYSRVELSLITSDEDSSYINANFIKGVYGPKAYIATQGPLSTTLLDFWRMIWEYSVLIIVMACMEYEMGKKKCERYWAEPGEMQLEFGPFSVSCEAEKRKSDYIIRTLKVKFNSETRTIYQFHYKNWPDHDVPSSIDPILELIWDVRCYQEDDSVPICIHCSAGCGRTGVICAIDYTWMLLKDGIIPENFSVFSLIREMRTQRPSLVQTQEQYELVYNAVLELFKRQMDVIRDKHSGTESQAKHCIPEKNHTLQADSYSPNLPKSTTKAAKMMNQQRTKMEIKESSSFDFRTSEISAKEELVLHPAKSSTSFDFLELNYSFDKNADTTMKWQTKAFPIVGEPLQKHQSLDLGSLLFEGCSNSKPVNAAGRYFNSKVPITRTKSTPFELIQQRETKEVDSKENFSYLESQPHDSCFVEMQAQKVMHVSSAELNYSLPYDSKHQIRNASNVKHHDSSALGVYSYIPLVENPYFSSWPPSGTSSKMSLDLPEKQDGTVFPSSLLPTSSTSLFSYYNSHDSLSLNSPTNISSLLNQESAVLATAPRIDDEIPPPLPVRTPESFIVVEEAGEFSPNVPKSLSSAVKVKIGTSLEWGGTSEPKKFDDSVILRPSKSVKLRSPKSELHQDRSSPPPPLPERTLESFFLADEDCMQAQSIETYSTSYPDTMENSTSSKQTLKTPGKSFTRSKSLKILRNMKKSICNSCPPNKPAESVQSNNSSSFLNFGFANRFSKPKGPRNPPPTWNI

[10] = Downregulation of REST protein expression in HEK293 cells transfected with wild type SCP1 at 10 uM incubated for 48 hrs with media replenishment for every 24 hrs by immunoblot analysis relative to control; format: functional, Homo sapiens
[11] = Upregulation of ELAVL1 mRNA expression in HEK293 cells assessed as fold increase by qRT-PCR analysis; format: functional, Homo sapiens
Homo sapiens [12] = species on record: Homo sapiens; experiment: Covalent inhibition of human SCP1 C92S mutant using pNPP as substrate preincubated for 0.5 to 8 hrs followed by substrate addition by absorbance based analysis; settings: time 0.5-8 hrs
[13] = Upregulation of SCN2 mRNA expression in HEK293 cells assessed as fold increase by qRT-PCR analysis; format: functional, Homo sapiens
HEK293 [14] = experiment: Recovery of REST protein expression in HEK293 cells at 10 uM incubated for 2 days with media replenishment for every 24 hrs followed by compound washout and measured after 24 to 48 hrs by immunoblot analysis relative to control; format: functional, Homo sapiens; settings: time 2 day
[15] = Upregulation of USP37 mRNA expression in HEK293 cells assessed as fold increase by qRT-PCR analysis; format: functional, Homo sapiens
Homo sapiens [16] = species on record: Homo sapiens; experiment: Covalent binding affinity to human SCP1 C181A mutant assessed as covalent adduct formation incubated for overnight by MALDI-TOF analysis
[17] = molecular target: T4, Tyrosine-protein phosphatase non-receptor type 2 (Homo sapiens) (UniProt P17706); experiment: Inhibition of TCPTP (unknown origin) at 25 to 30 uM; settings: dose 25-30 µM
T4 sequence (whole entry): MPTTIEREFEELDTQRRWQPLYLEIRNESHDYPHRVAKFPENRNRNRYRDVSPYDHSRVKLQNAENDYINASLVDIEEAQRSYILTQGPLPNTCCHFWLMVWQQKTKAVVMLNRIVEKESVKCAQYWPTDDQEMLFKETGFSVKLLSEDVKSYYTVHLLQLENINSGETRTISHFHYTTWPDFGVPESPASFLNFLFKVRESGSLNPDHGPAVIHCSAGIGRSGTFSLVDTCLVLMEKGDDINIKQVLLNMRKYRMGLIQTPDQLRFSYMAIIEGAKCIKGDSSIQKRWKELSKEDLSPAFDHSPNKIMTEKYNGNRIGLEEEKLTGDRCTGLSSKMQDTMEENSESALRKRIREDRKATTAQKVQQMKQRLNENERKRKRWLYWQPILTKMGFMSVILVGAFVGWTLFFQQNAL

[18] = molecular target: T5, Receptor-type tyrosine-protein phosphatase C (Homo sapiens) (UniProt P08575); experiment: Inhibition of CD45 (unknown origin) at 25 to 30 uM; settings: dose 25-30 µM
T5 sequence (whole entry): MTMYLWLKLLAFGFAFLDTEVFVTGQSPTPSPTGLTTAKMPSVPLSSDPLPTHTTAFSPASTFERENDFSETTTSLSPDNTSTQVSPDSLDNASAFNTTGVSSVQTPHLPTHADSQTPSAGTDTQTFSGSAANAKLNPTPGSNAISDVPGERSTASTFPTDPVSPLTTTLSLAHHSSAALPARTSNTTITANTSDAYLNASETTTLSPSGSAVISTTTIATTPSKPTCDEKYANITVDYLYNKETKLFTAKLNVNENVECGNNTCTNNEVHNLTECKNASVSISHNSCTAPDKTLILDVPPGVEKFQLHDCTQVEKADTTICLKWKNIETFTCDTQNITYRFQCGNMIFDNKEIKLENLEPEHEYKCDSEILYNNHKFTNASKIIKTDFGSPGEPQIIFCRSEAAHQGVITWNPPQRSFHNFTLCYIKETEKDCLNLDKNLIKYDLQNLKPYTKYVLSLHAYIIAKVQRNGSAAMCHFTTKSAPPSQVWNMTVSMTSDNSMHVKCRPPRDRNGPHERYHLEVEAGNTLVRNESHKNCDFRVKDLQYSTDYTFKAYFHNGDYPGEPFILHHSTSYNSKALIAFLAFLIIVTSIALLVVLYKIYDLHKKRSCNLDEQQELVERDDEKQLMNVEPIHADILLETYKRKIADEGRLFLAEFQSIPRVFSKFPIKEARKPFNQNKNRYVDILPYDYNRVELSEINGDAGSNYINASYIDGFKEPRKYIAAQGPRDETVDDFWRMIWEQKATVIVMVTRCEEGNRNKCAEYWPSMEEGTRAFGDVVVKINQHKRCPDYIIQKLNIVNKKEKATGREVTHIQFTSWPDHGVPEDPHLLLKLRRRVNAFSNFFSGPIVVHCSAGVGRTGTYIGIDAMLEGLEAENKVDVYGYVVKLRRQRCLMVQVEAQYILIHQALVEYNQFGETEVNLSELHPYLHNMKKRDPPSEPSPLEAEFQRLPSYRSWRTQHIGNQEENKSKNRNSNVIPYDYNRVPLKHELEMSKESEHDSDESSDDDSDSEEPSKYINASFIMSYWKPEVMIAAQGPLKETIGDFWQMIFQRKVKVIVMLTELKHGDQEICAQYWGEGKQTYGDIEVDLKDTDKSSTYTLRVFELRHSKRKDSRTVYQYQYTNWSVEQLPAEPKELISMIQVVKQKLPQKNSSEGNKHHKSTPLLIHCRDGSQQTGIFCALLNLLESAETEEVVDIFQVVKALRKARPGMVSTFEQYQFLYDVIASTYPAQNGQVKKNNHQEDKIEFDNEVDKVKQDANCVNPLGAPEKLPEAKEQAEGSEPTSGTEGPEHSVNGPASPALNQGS

[19] = Downregulation of REST protein expression in HEK293 cells at 10 uM incubated for 3 days with media replenishment for every 24 hrs by immunoblot analysis relative to control; format: functional, Homo sapiens; settings: time 3 day
[20] = Downregulation of REST protein expression in HEK293 cells at 10 uM incubated for 12 hrs by immunoblot analysis relative to control; format: functional, Homo sapiens
[21] = Downregulation of REST protein expression in HEK293 cells incubated for 3 days with media replenishment for every 24 hrs by immunoblot analysis; format: functional, cell-based; settings: Homo sapiens
HEK293 [22] = experiment: Recovery of REST protein expression in HEK293 cells at 10 uM incubated for 2 days with media replenishment for every 24 hrs followed by compound washout and measured after 3 days by immunoblot analysis relative to control; format: functional, Homo sapiens; settings: time 2 day
Homo sapiens [23] = species on record: Homo sapiens; experiment: Covalent binding affinity to human SCP1 C92 mutant assessed as covalent adduct formation incubated for overnight by MALDI-TOF analysis
[24] = Upregulation of CELSR3 mRNA expression in HEK293 cells assessed as fold increase by qRT-PCR analysis; format: functional, Homo sapiens
[25] = Downregulation of REST protein expression in HEK293 cells at 5 uM incubated for 3 days with media replenishment for every 24 hrs by immunoblot analysis relative to control; format: functional, Homo sapiens; settings: time 3 day
[26] = tested on: Schizosaccharomyces pombe; experiment: Inhibition of Schizosaccharomyces pombe wild type FCP1 (148 to 641 residues) assessed as reduction in enzymatic activity using pNPP as substrate at 100 uM measured up to 18 hrs by absorbance based assay relative to control; settings: time hrs <=18
[27] = Upregulation of DYRK1a mRNA expression in HEK293 cells assessed as fold increase by qRT-PCR analysis; format: functional, Homo sapiens
[28] = tested on: Schizosaccharomyces pombe; experiment: Time dependent inhibition of Schizosaccharomyces pombe wild type FCP1 (148 to 641 residues) using pNPP as substrate measured upto 18 hrs by absorbance based assay; settings: time hrs <=18
Homo sapiens [29] = species on record: Homo sapiens; experiment: Inhibition of PP1 (unknown origin) using pNPP as substrate incubated for 4 hrs by absorbance based analysis
Homo sapiens [30] = species on record: Homo sapiens; experiment: Covalent inhibition of human SCP1 C181A mutant using pNPP as substrate preincubated for 0.5 to 8 hrs followed by substrate addition by absorbance based analysis; settings: time 0.5-8 hrs

For `O=C(NCCCNS(=O)(=O)c1ccc(OC(F)(F)F)cc1)C1=Cc2ccccc2S1(=O)=O`, the Activity [1] was 40%, the Activity (HEK293 [2]) was 24% and the inhibition [3] was “inactive”. The Activity (HEK293 [4]) was “Active”, the inhibition [5] was “inactive” and the inhibition (Homo sapiens [6]) was “Active”. For the same molecule, the inhibition [7] was “inactive”, the Activity [8] was 60% and the inhibition [9] was “inactive”. The Activity [10] was 80%, the “fold change (FC)” value [11] was 2 and the inhibition (Homo sapiens [12]) was “inactive”. The “fold change (FC)” value [13] was 2, the Activity (HEK293 [14]) was 50% and the “fold change (FC)” value [15] was 2. For the same molecule, the Activity (Homo sapiens [16]) was “inactive”, the inhibition [17] was “inactive” and the inhibition [18] was “inactive”. For the same molecule, the Activity [19] was 7%, the Activity [20] was 20% and the EC50 [21] was 1500 nM. The Activity (HEK293 [22]) was 77%, the Activity (Homo sapiens [23]) was “Active” and the “fold change (FC)” value [24] was 2. The Activity [25] was 75%, the inhibition [26] was 50% and the “fold change (FC)” value [27] was 2. For the same molecule, the inhibition [28] was “inactive”, the inhibition (Homo sapiens [29]) was “inactive” and the inhibition (Homo sapiens [30]) was “Active”.
